“And” between values parts separate entries of the source, which are not always exact repeats. Equal values may be shown once. Read-outs that look alike come from different tables or passages of the source.
Tests used:
mice [1] = experiment: Four plate test; assay type: in vivo
Description: (§1) Mice were placed individually in the four plate apparatus connected to the power source. After a 15 s of habituation period, each mouse crossing from one plate to another (two limbs on one plate, two on another) was punished by an electric shock (0.8 mA, 0.5 s). If the mouse continued running, it received no new shock for the following 3 s. The number of punished crossings was calculated during the 60 s of the test.

mice [2] = experiment: Elevated plus maze test; assay type: in vivo
mice [3] = experiment: Spontaneous locomotor activity; assay type: in vivo
Description: Photoresistor actometers (Ugo Basile, Italy) connected to a counter for the recording of light-beam interruptions were used to investigate the effect of the compound on locomotor activity in mice. Locomotor activity was counted as the number of the light-beam crossing. It was recorded individually for each animal. After administration of the tested compound, each mouse was placed separately in a cage for 30 min habituation period. After that time, the parameter was measured for 1 min and 5 min (i.e., time equal to the observation period in four plate test and elevated plus maze test, respectively). The cages were sanitized with 70% ethanol after each mouse.

mice [4] = experiment: Four plate test after pretreatment with pCPA, WAY-100635 or AMPT; assay type: in vivo
Description: as §1
We performed the four plate test 30 min after the administration.
Control group received vehicle (1% Tween). […] We performed the four plate test 30 min after the compound administration.

5-HT1A receptor [5] = target: T1, 5-HT1A receptor (Homo sapiens, UniProt P08908); set-up: expressed in transfected cells; host or cells: CHO (CHO-5HT1A); method as in Kubacka et al., 2016; settings: 5-HT1A Ca2+ assay, ref Kubacka et al., 2016, cited from earlier work
T1 sequence (P08908 1-422): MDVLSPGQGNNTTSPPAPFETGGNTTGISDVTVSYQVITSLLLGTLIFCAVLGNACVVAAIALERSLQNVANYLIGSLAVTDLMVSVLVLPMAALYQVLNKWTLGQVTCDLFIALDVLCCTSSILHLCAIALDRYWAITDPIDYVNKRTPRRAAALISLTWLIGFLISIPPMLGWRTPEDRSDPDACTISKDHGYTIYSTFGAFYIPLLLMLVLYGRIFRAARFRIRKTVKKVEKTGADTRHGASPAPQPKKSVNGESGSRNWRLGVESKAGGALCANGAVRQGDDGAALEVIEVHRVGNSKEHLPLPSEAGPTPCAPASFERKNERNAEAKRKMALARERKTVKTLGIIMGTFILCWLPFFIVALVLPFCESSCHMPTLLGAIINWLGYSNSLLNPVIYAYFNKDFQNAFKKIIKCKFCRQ

5-HT1A receptor [6] = target: T1, 5-HT1A receptor; experiment: SureFire ERK-phosphorylation AlphaLISA assay, CHO-5HT1A cells; settings: 5-HT1A pERK1/2 assay
Description: (§2) Serial dilutions were prepared in 96-well microplate in appropriate dilution buffer (HBSS or medium) with 0.1% BSA added, and 8–10 concentrations were tested in duplicates. At least two independent experiments were performed for each type of method. Assays were done according to manufacturer’s protocols.

5-HT1A receptor [7] = target: T1, 5-HT1A receptor; experiment: Tango LiveBLAzer β-arrestin recruitment assay, HTR1A-bla U2OS cells; settings: 5-HT1A ß-arrestin assay
[8] = target: T2, human serotonin 5-HT1A receptor (Homo sapiens, UniProt P08908); experiment: cAMP assay (TR-FRET), CHO-K1 cells; settings: 5-HT1A cAMP assay
T2 sequence (P08908 1-422): T1 sequence (P08908 1-422)

serotonin levels = test system: serotonin levels; set-up: method as in Imaizumi et al. (1996); settings: 3-day treatment with pCPA 200 mg/kg; ref Imaizumi et al. (1996); cited from earlier work
D2 receptor = D2 receptor (Homo sapiens, UniProt P14416); experiment: cell-based
Description: as §2

GABAA receptor = settings: read-out: GABAA receptors Ki ± SEM; rat cerebral cortex, [3H]-muscimol 1 nM
Description: The final incubation mixture (total volume 250 μl) consisted of a 50 μl solution of the test compound, 50 μl of radioligand and 150 μl of diluted membranes or the tissue suspension. The incubation was terminated by rapid filtration over glass fiber filters GF/B (PerkinElmer, United States) using 96-well FilterMate Harvester (PerkinElmer, United States). Five rapid washes were performed with ice-cold 50 mM Tris–HCl buffer (pH 7.4 or 7.6). […] Radioligand binding data were analyzed using iterative curve fitting routines GraphPad Prism 5.0 (GraphPad Software). […] At least two independent experiments were performed for each assay.

5-HT2A receptor = 5-HT2A receptor (Homo sapiens, UniProt P28223); assay type: cell-based
Description: as §2

[9] = antagonist mode, serotonin EC80 (45 nM)
[10] = antagonist mode, serotonin EC80 (300 nM)
[11] = antagonist mode, serotonin EC80 (120 nM)

CCCN(CCC)C1CCc2cccc(O)c2C1 (stereo not drawn) [8-OH-DPAT]
Increase in the number of punished crossings (mice [1]; 0.5 mg/kg, 15 min before test (but not 0.25, 1 or 2 mg/kg)): 38.2% | Increase in time spent in the open arms vs non-treated control (mice [2]; 2 mg/kg, 15 min before test (but not 0.25, 0.5 or 1 mg/kg)): 154.3% | Effect on number of open arm entries (mice [2]; 8-OH-DPAT doses tested up to 2 mg/kg, 15 min before test): no effect

COc1ccccc1N1CCN(CCN(C(=O)C2CCCCC2)c2ccccn2)CC1 [WAY-100635]
Number of crossings ± SEM (mice [3]; WAY-100635 experiment, WAY-100635 0.3 mg/kg): 27.9 | Effect on number of punished crossings (mice [4]; WAY-100635 alone, 0.3 mg/kg s.c.): did not influence

COc1ccccc1N1CCN(CC(C(=O)NC(C)(C)C)c2ccccc2)CC1 (stereo not drawn) [WAY-100135]
Agonist mode Emax % (5-HT1A receptor [5]; agonist mode): 2% | Antagonist mode Emax % (5-HT1A receptor [5]; antagonist mode): 0% | Antagonist mode pIC50 (5-HT1A receptor [5]; antagonist mode): 8.3 | Kb (5-HT1A receptor [5]; antagonist mode): 0.8 nM | Agonist mode Emax % (5-HT1A receptor [6]; agonist mode): 2% | Antagonist mode Emax % (5-HT1A receptor [6]; [9]): 0% | Antagonist mode pIC50 (5-HT1A receptor [6]; [9]): 7.90 | Kb (5-HT1A receptor [6]; read-out: Antagonist mode Kb, antagonist mode, serotonin EC80 (45 nM)): 2.7 nM | Agonist mode Emax % (5-HT1A receptor [7]; agonist mode, relative to serotonin): 1% | Antagonist mode Emax % (5-HT1A receptor [7]; [10]): 5% | Antagonist mode pIC50 (5-HT1A receptor [7]; [10]): 8.1 | Kb (5-HT1A receptor [7]; read-out: Antagonist mode Kb, antagonist mode, serotonin EC80 (300 nM)): 5.9 nM | Agonist mode Emax % ([8]; agonist mode, 10 μM forskolin): 2% | Antagonist mode Emax % [8, 11]: 8% | Antagonist mode pIC50 [8, 11]: 7.9 | Kb ([8]; read-out: Antagonist mode Kb, antagonist mode, serotonin EC80 (120 nM)): 6.4 nM

N[C@@H](Cc1ccc(Cl)cc1)C(=O)O (racemic) [pCPA, p-Chlorophenylalanine]
Number of crossings ± SEM (mice [3]; pCPA experiment, pCPA 200 mg/kg): 29.4 | Effect on number of punished crossings (mice [4]; pCPA alone, 200 mg/kg i.p., three days): did not influence | Reduction of serotonin levels in the cortex (serotonin levels): 30% | Reduction of serotonin levels in the diencephalon (serotonin levels): 35% | Reduction of serotonin levels in the midbrain (serotonin levels): 24% | Reduction of serotonin levels in the pons with medulla (serotonin levels): 34%

CN1CCc2cccc3c2[C@H]1Cc1ccc(O)c(O)c1-3 [Apomorphine]
Emax (D2 receptor; read-out: Agonist mode Emax %): 100% | Emax (D2 receptor; read-out: Antagonist mode Emax %): 1%

CC1CCN(CC[C@H]2CCCN2S(=O)(=O)c2cccc(O)c2)CC1 [SB269970]
Increase in the number of punished crossings vs non-treated control (mice [1]; […] i.p. 30 min before test (but not 1.25 or 5 mg/kg)): 137.5%

CC(N)(Cc1ccc(O)cc1)C(=O)O (stereo not drawn) [AMPT, α-methyl-p-tyrosine]
Number of crossings ± SEM (mice [3]; AMPT experiment, AMPT 100 mg/kg): 24.5 | Effect on number of punished crossings (mice [4]; AMPT alone, 100 mg/kg i.p.): had no effect

COc1ccccc1N1CCN(CCCOc2cc(C)ccc2C)CC1.Cl [HBK-17, 1-[(2,5-dimethylphenoxy)propyl]-4-(2-methoxyphenyl)piperazine hydrochloride]
Number of crossings ± SEM (mice [3]; mouse, in vivo, ip, 5 mg/kg): 44.8

CN1C(=O)CN=C(c2ccccc2)c2cc(Cl)ccc21 [Diazepam, diazepam]
Ki (GABAA receptor): 5.6 ± 0.7 nM | Increase in number of open arm entries vs non-treated control (mice [2]; mouse, in vivo): 78.5% and 73.9% and 124.6% | Increase in time spent in the open arms vs non-treated control (mice [2]; mouse, in vivo): 84.6% and 59.9%

CC(N)Cc1c[nH]c2ccc(O)cc12 (stereo not drawn) [α-Methylserotonin, α-methylserotonin]
Agonist mode Emax % (5-HT2A receptor; agonist mode): 100% | Agonist mode pEC50 (5-HT2A receptor; agonist mode): 8.70 | Antagonist mode Emax % (5-HT2A receptor; antagonist mode): 1%

Source: PMC6209770 (Frontiers in Pharmacology, 2018)
